Data on two compounds can be found in patent US6352976B1, “Selective inhibitors of MMP-12” (Aventis Pharmaceuticals Inc., priority 1998, dated 2002).

This experiment has as its target T1, MMP-12 (macrophage metalloelastase) (Homo sapiens, UniProt P39900).
T1 construct: made in house
Put plainly: Determination of the inhibition constant (Ki) for MMP-12, fluorogenic substrate. Conditions: compared to their N-methylamide derivatives (Examples 6 and 7); from Ki values of Table 2. Type of experiment: biochemical. As for the experimental part: MMP-12 (EC3.4.24.65) was cloned, expressed and purified according to Shapiro, S. D. et al., J Biol. Chem. 268, 23824-23829 (1993). […] Aliquots of MMP-12 were stored at −70° C.
The potency of inhibitors of MMP-12 was measured using either quartz cuvettes or microtiter plates. The activity of MMP-12 was measured using a fluorogenic substrate, Mca-Pro-Leu-Gly-Leu-Dpa-Ala-Arg-NH2 SEQ ID NO1, Knight, C. G. et al., FEBS Lett. 296,263-266 (1992), at 25° C. in an assay buffer containing 50 mM Tris, pH 7.6, 0.2 M sodium chloride, 50 mM calcium chloride, and 0.02% Brij-35. The increase in fluorescence due to cleavage of Gly-Leu peptide bond by MMP-12 was monitored with a Perkin-Elmer LS50B Fluorimeter (λex 328 nm, λem 393 nm, excitation slit 2.5, emission slit 10) for the cuvette assay and with a Molecular Devices Fmax fluorescence plate reader (λex 320 nm, λem 405 nm) for the microtiter plate assay. Substrate and inhibitor stock solutions were made in N,N-dimethylformamide (DMF) and 0.1% HCl-DMF, respectively.
Ki values were determined using the cuvette method by preparing a series of intermediate inhibitors solutions in 0.1% HCl-DMF and mixing the inhibitor with substrate (final concentration 2 μM) in a quartz cuvette containing 2 ml of assay buffer. MMP-12 was added to start the reaction at a concentration of 2 nM and progress curves were generated. For routine measurement of a Ki value for a reversible competitive inhibitor, the initial rates in the presence of at least four inhibitor concentrations (two concentrations above and two concentrations below the Ki) were measured [S]=2 μM (<<Km) and [MMP-12]=2 nM. Under these conditions, the measured Ki,app is close to the true Ki.
Ki values were determined using the microtiter plate method in a manner similar to that described for the cuvette method with some modifications. Four different inhibitor concentrations (50 μl in assay buffer) of each compound were added to separate wells of a microtiter plate and substrate was added (100 μl) to get a final concentration of […]. MMP-12 was added to a final concentration of 2 nM (50 μl) to start the reaction. Cleavage of substrate was recorded every 30 seconds for 30 minutes and progress curves were generated.
The Ki for a competitive inhibitor was calculated using: V0/Vi=(1+[I]/Ki,app) and Ki=Ki,app/(1+[S]/Km), where V0 is the initial rate in the absence of inhibitor, Vi is the initial rate in the presence of inhibitor at the concentration of [I], [S] is the substrate concentration, and Km is the Michaelis constant. If slow binding is observed (i.e. if the approach to the binding equilibrium is slow), the final steady-state rate rather than the initial rate is taken as Vi.

SMILES strings stand for the structures.

T1 sequence (P39900 106-263 limits assumed): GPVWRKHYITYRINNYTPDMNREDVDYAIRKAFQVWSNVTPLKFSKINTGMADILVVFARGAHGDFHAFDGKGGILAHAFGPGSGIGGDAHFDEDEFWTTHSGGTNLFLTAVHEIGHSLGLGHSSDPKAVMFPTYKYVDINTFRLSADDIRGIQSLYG

Consider `CCCC(S)C(=O)N[C@@H](CCc1ccccc1)C(=O)N[C@@H](Cc1ccccc1)C(=O)O` (some centres unmarked) [Example 1, 2-Mercapto-pentanoyl-(L)-homo-phenylalanyl-(L)-phenylalanine], for which the “selectivity for MMP-12 over MMP-1, MMP-2, and MMP-3” value was “selective for MMP-12 over MMP-1, MMP-2, and MMP-3”.

As for `CC(C)[C@H](S)C(=O)N[C@@H](CCc1ccccc1)C(=O)N[C@@H](Cc1ccccc1)C(=O)O` [Example 2, (S)-2-Mercapto-3-methylbutyroyl-(L)-homo-phenylalanyl-(L)-phenylalanine], the “selectivity for MMP-12 over MMP-1, MMP-2, and MMP-3” value is “selective for MMP-12 over MMP-1, MMP-2, and MMP-3”.
